Source: US8603482B2, “Compositions and methods for cancer immunotherapy” (Eisai R&D Management Co., Ltd., priority 2005, dated 2013)
“And” between values parts separate entries of the source, which are not always exact repeats. Equal values may be shown once.

B1: GM-CSF: murine GM-CSF, a cytokine used in cancer vaccine trials to boost immune response (protein, UniProt P01587 18-141, looked up)
Granulocyte-macrophage …: APTRSPITVTRPWKHVEAIKEALNLLDDMPVTLNEEVEVVSNEFSFKKLTCVQTRLKIFEQGLRGNFTKLKGALNMTASYYQTYCPPTPETDCETQVTTYADFIDSLKTFLTDIPFECKKPGQK

Experiments:
[1] = test system: B16F10 murine melanoma cells; assay: Survival of B16F10 melanoma-bearing mice, i.p. E6020 with s.c. GM-CSF-secreting tumor cell vaccine; type: in vivo, B6 mice (C57BL/6 mice); settings: i.p. E6020 plus s.c. irradiated B16-GM-CSF cells at separate sites, three days after s.c. B16F10 inoculation; FIG. 1
Text: To determine the effect of E6020, a sodium salt of ER 804057, when administered intraperitoneally with a cancer vaccine, e.g., granulocyte-macrophage colony stimulating factor (GM-CSF) secreting tumor cells, a mouse model using melanoma cells was used.
E6020 is a TLR4 (Toll-like receptor-4) agonist. B6 mice (C57BL/6 mice) were engrafted subcutaneously with 1×10^6 syngeneic B16F10 murine melanoma cells. Three days after tumor cell inoculation, the mice were either (1) vaccinated subcutaneously (s.c.) with 1×10^6 B16F10 tumor cells that were genetically modified to stably express and secrete murine GM-CSF (B16-GM-CSF cells); (2) vaccinated intraperitoneally (i.p.) with E6020; or (3) were treated with a combination of s.c. GM-CSF cell vaccination and i.p. E6020 (the GM-CSF cell vaccination and E6020 vaccination were administered at separate sites in the mice). In these experiments, the GM-CSF cells were inactivated by gamma-irradiation prior to inoculation. Survival of the animals was monitored.

[2] = test system: B16F10 murine melanoma cells; assay: Survival of B16F10 melanoma-bearing mice, intratumoral GM-CSF cells with E6020; type: in vivo, B6 mice; settings: intratumoral GM-CSF cells in combination with E6020 (about 3-10 μg) when tumors palpable; versus untreated or GM-CSF cells alone; FIG. 2
Protocol: The effect of E6020 on treatment of B6 mice that were engrafted subcutaneously with 1×10^6 syngeneic B16F10 murine melanoma cells was examined. When tumors became palpable, the mice were injected intratumorally with GM-CSF cells alone, or in combination with E6020 (about 3-10 μg). Survival of the animals was monitored.

[3] = test system: MUC1 IL-10−/− mice; assay: MUC-1 vaccine with E6020 adjuvant in mice that develop IBD followed by colon adenocarcinoma; type: in vivo, mouse
Protocol: To test the effects of a MUC-1 vaccine with E6020 adjuvant for treating inflammatory bowel disease (IBD) and subsequent development of colon adenocarcinoma, an engineered mouse strain that lacks the IL-10 gene and expresses transgenic human MUC1 was used. Such mice spontaneously develop intestinal inflammation resembling IBD followed by colon adenocarcinoma. […] 4, 2006.
In these experiments, mice were immunized intranasally with […] of Tn MUC100mer ([…])×5, SEQ ID NO:1) and […] of E6020. Animals were vaccinated at about 4.5 weeks and boosted at about 6.5 weeks and 9 weeks.

[4] = test system: EGFRvIII peptide; assay: EGFRvIII peptide-specific antibody titers by ELISA after immunization with peptide-KLH conjugate; type: in vivo, C57/BL6J mice; settings: for Geometric mean titer: IgG1 / Geometric mean titer: IgG2a: antigen administered with the named adjuvant, 8 animals; for IgG1 antibody titer to EGFRvIII peptide, individual animals / IgG2a antibody titer to EGFRvIII peptide, individual animals: s.c. peptide-KLH conjugate 25 μg with E6020 3 μg and/or GM-CSF 5 μg, three immunizations at three-week intervals, titer = last serum dilution with signal 0.25 OD units above background
Protocol: To determine whether an adjuvant can enhance the effect of an oncology antigen (i.e., an antigen that can be used to vaccinate an animal against a cancer), C57/BL6J mice were immunized subcutaneously with a tumor-associated peptide, LEEKKGNYVVTDHC (SEQ ID NO: 2) (derived from a mutant form of EGFR, EGFRvIII) conjugated to the protein carrier keyhole limpet hemocyanin (KLH), with or without E6020 or murine GM-CSF, a cytokine used in cancer vaccine trials to boost immune response. E6020 was dosed at 3 μg, GM-CSF at 5 μg and the peptide-KLH conjugate at 25 μg per dose. Mice were immunized three times at intervals of three weeks. Serum was prepared from mice two weeks after each immunization and tested for EGFRvIII peptide-specific antibodies using ELISA on plates coated with EGFRvIII peptide conjugated to bovine serum albumin. The results in Table 2 are presented as titers from individual animals. The titer is defined as the last serum dilution at which a signal at 0.25 OD units above background was observed.

[5] = addition of E6020 to the MUC-1 vaccine

Molecule | therapeutic efficacy (survival of tumor-bearing mice) [1] | survival of tumor-bearing mice [2] | appearance of histologically detected tumors [3, 5] | progression to rectal prolapse associated with IBD [3, 5] | Colon tumors ([3]; mice with colon tumors / mice treated, MUC1 IL-10−/− mice) | Geometric mean titer: IgG1 [4] | Geometric mean titer: IgG2a [4] | IgG1 antibody titer to EGFRvIII peptide, individual animals [4] | IgG2a antibody titer to EGFRvIII peptide, individual animals [4] | effect on antigen-specific IgG2a titers (in words) ([4]; vaccination with EGFRvIII peptide-KLH)
CCCCCCCCCCCC(=O)CC(=O)N[C@H](COCC[C@@H](CCCCCCC)OC(=O)CCCCCCCCCCC)COP(=O)(O)OCCNC(=O)NCCOP(=O)(O)OC[C@@H](COCC[C@@H](CCCCCCC)OC(=O)CCCCCCCCCCC)NC(=O)CC(=O)CCCCCCCCCCC [E6020] | enhanced the therapeutic efficacy of the GM-CSF cells | increased survival | suppresses the appearance of histologically detected tumors | slow the progression to rectal prolapse associated with IBD | 3/3 | 20182 | 10091 | 24000 (6×) and 48000 and 3000 | 12000 (3×) and 24000 and 48000 and 1500 and 6000 (2×) | enhanced the mean titer of antigen-specific IgG2a
B1 |  |  |  |  |  | 24000 | 3568 | 24000 (2×) and 48000 (3×) and 12000 (3×) | 3000 (2×) and 6000 (3×) and 24000 and 750 (2×) | 
